Columns and labels:
HAP1 MTAP-deleted = test: SDMA in-cell western assay, HAP1 MTAP-deleted cell line; format: cell-based; conditions: for IC50: Homo sapiens, HAP1 MTAP-deleted cell line; for MTAP Intact/Deleted Ratio: IC50 ratio HAP1 MTAP-intact / HAP1 MTAP-deleted
Outline: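 These are IC50 values from an in-cell western measuring SDMA. The HAP1 cells used carry no MTAP, in contrast to the isogenic partner line with endogenous MTAP expression.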

PRMT5 [1] = target: T1, PRMT5 (Homo sapiens, UniProt O14744); test: PRMT5 IC50 assay in the presence of SAM as cofactor; format: biochemical
T1 construct: purchased Viva (custom protein)
Outline: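 Three cofactor conditions tested for PRMT5 inhibition: none, MTA and SAM, each giving an IC50. For conversion to Ki, the MTA-condition IC50 is divided by 13.5 and the SAM-condition IC50 by 1.5, and the two Ki values are expressed as a SAM/MTA ratio.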

PRMT5 [2] = target: T1, PRMT5; test: PRMT5 IC50 assay with no cofactor; format: biochemical; conditions: read-out: No Co-factor IC50
Outline: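 Values reflect IC50 (μM) on human PRMT5 under three cofactor states. Selectivity is derived as the quotient of SAM-state Ki over MTA-state Ki, with each Ki obtained from its IC50.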

PRMT5 [3] = target: T1, PRMT5; test: PRMT5 IC50 assay in the presence of MTA as cofactor; format: biochemical; conditions: for IC50: PRMT5, MTA as cofactor; for SAM/MTA Ratio: ratio between Ki in the presence of SAM and Ki in the presence of MTA
Outline: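 Potency against PRMT5 is compared across cofactor states, where IC50 equals Ki×1.5 with SAM present and Ki×13.5 with MTA present.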

HAP1 MTAP-intact = test: SDMA in-cell western assay, HAP1 MTAP-intact cell line; format: cell-based; conditions: Homo sapiens
Outline: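 Potency reflects cellular SDMA reduction, detected by in-cell western, in HAP1 cells with or without MTAP (endogenous expression versus null).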

T1 sequence (O14744 whole entry): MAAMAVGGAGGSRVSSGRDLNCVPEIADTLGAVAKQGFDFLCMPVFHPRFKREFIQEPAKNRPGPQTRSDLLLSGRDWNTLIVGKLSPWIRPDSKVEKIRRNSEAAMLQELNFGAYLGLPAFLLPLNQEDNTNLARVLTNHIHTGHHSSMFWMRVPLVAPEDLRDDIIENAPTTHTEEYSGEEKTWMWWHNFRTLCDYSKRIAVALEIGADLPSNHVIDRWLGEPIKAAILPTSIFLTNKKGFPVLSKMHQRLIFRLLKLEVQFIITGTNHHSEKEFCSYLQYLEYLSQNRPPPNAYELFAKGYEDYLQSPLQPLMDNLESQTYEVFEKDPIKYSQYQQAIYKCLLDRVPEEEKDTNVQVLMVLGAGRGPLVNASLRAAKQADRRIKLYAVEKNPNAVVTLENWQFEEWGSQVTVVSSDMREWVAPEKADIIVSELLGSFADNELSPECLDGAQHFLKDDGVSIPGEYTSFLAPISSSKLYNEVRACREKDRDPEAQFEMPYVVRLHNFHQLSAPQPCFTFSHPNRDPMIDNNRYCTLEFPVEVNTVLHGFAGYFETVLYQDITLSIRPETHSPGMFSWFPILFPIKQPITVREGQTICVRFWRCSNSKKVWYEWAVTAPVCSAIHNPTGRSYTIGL
T1 sequence (Q9BQA1 whole entry partner): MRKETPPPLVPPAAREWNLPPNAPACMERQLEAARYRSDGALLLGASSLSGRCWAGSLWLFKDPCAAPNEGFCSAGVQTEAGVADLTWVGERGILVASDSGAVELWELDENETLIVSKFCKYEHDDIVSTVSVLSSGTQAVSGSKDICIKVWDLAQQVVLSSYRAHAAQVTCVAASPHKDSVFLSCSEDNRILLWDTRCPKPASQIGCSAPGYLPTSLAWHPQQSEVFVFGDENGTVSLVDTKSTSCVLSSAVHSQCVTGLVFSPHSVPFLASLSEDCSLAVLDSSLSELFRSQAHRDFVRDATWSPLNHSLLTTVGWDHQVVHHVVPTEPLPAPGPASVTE

Row | IC50 (HAP1 MTAP-deleted) | IC50 (PRMT5 [1]) | IC50 (PRMT5 [2]) | IC50 (PRMT5 [3]) | IC50 (HAP1 MTAP-intact) | SMILES | MTAP Intact/Deleted Ratio (HAP1 MTAP-deleted) | SAM/MTA Ratio (PRMT5 [3])
1 | 1 to 10 µM | 50 to 500 nM | 0.5 to 5 µM | 50 to 500 nM | ≥ 10 µM | CCN1CCN(c2cc(C(=O)NC[C@H](O)CN3CCc4c(ccc(OCc5cnco5)c4Cl)C3)cc(NC3CCC3)n2)CC1 [Compound 299, (S)—N-(3-(5-chloro-6-(oxazol-5-ylmethoxy)-3N-dihydroisoquinolin-2(1H)-yl)-2-hydroxypropyl)-2-(cyclobutylamino)-6-(4-ethylpiperazin-1-yl)isonicotinamide] | B* (an IC50 ratio greater than or equal to 3 fold but lower than 10 fold between the IC50 in the HAP1 MTAP-intact cell line and the HAP1 MTAP-deleted cell line) | A (a Ki ratio greater than or equal to 10 fold between the Ki in the presence of SAM and the Ki in the presence of MTA)
2 | ≥ 10 µM | 50 to 500 nM | 0.5 to 5 µM | 50 to 500 nM | ≥ 10 µM | CC(=O)N1CCN(c2nc(NC3COC3)cc(C(=O)NC[C@H](O)CN3CCc4c(ccc(OCc5cnco5)c4Cl)C3)n2)CC1 [Compound 300, (S)-2-(4-acetylpiperazin-1-yl)-N-(3-(5-chloro-6-(oxazol-5-ylmethoxy)-3,4-dihydroisoquinolin-2(1H)-yl)-2-hydroxypropyl)-6-(oxetan-3-ylamino)pyrimidine-4-carboxamide] | C* (an IC50 ratio of less than 3 fold between the IC50 in the HAP1 MTAP-intact cell line and the HAP1 MTAP-deleted cell line) | A (a Ki ratio greater than or equal to 10 fold between the Ki in the presence of SAM and the Ki in the presence of MTA)
3 | 1 to 10 µM | 50 to 500 nM | 0.5 to 5 µM | 50 to 500 nM | ≥ 10 µM | O=C(NC[C@H](O)CN1CCc2c(ccc(OCc3cnco3)c2Cl)C1)c1ccc(OC2CCN(Cc3ccncc3)CC2)cc1 [Compound 301, (S)—N-(3-(5-chloro-6-(oxazol-5-ylmethoxy)-3,4-dihydroisoquinolin-2(1H)-yl)-2-hydroxypropyl)-4-((1-(pyridin-4-ylmethyl)piperidin-4-yl)oxy)benzamide] | C* (an IC50 ratio of less than 3 fold between the IC50 in the HAP1 MTAP-intact cell line and the HAP1 MTAP-deleted cell line) | A (a Ki ratio greater than or equal to 10 fold between the Ki in the presence of SAM and the Ki in the presence of MTA)
4 | ≥ 10 µM | 500 to 5000 nM | ≥ 5 µM | 50 to 500 nM | ≥ 10 µM | COc1cc(C(=O)NC[C@H](O)CN2CCc3c(ccc(OCc4cnco4)c3Cl)C2)cc(NC2CCC2)n1 [Compound 302, (S)—N-(3-(5-chloro-6-(oxazol-5-ylmethoxy)-3N-dihydroisoquinolin-2(1H)-yl)-2-hydroxypropyl)-2-(cyclobutylamino)-6-methoxyisonicotinamide] | C* (an IC50 ratio of less than 3 fold between the IC50 in the HAP1 MTAP-intact cell line and the HAP1 MTAP-deleted cell line) | A (a Ki ratio greater than or equal to 10 fold between the Ki in the presence of SAM and the Ki in the presence of MTA)
5 | 1 to 10 µM | 50 to 500 nM | ≥ 5 µM | 50 to 500 nM | ≥ 10 µM | CCN(C)c1nc(NC2COC2)cc(C(=O)NC[C@H](O)CN2CCc3c(ccc(OCc4cnco4)c3Cl)C2)n1 [Compound 303] | C* (an IC50 ratio of less than 3 fold between the IC50 in the HAP1 MTAP-intact cell line and the HAP1 MTAP-deleted cell line) | A (a Ki ratio greater than or equal to 10 fold between the Ki in the presence of SAM and the Ki in the presence of MTA)
6 | 1 to 10 µM | 50 to 500 nM | 0.5 to 5 µM | 50 to 500 nM | 1 to 10 µM | O=C(NC[C@H](O)CN1CCc2cc(OCc3cnco3)ccc2C1)c1cc(NC2COC2)nc(N2CCOCC2)n1 [Compound 304, (S)—N-(2-hydroxy-3-(6-(oxazol-5-ylmethoxy)-3N-dihydroisoquinolin-2(1H)-yl)propyl)-2-morpholino-6-(oxetan-3-ylamino)pyrimidine-4-carboxamide] | C* (an IC50 ratio of less than 3 fold between the IC50 in the HAP1 MTAP-intact cell line and the HAP1 MTAP-deleted cell line) | –
7 | 1 to 10 µM | 500 to 5000 nM | ≥ 5 µM | 500 to 5000 nM | ≥ 10 µM | O=C(NC[C@H](O)CN1CCc2c(ccc(OCc3cnco3)c2Cl)C1)c1cc(NC2CCC2)nc(N2CCCCC2)c1 [Compound 305, (S)—N-(3-(5-chloro-6-(oxazol-5-ylmethoxy)-3N-dihydroisoquinolin-2(1H)-yl)-2-hydroxypropyl)-2-(cyclobutylamino)-6-(piperidin-1-yl)isonicotinamide] | C* (an IC50 ratio of less than 3 fold between the IC50 in the HAP1 MTAP-intact cell line and the HAP1 MTAP-deleted cell line) | A (a Ki ratio greater than or equal to 10 fold between the Ki in the presence of SAM and the Ki in the presence of MTA)
8 | ≥ 10 µM | 50 to 500 nM | 0.5 to 5 µM | 50 to 500 nM | 1 to 10 µM | CC(C)(C)N1CCN(c2cc(C(=O)NC[C@H](O)CN3CCc4cc(OCc5cnco5)ccc4C3)cc(NC3CCC3)n2)CC1 [Compound 306, (S)-2-(4-(tert-butyl)piperazin-1-yl)-6-(cyclobutylamino)-N-(2-hydroxy-3-(6-(oxazol-5-ylmethoxy)-3N-dihydroisoquinolin-2(1H)-yl)propyl)isonicotinamide] | C* (an IC50 ratio of less than 3 fold between the IC50 in the HAP1 MTAP-intact cell line and the HAP1 MTAP-deleted cell line) | A (a Ki ratio greater than or equal to 10 fold between the Ki in the presence of SAM and the Ki in the presence of MTA)
9 | < 1 µM | 500 to 5000 nM | ≥ 5 µM | 50 to 500 nM | 1 to 10 µM | CC(C)Cc1cc(C(=O)NC[C@H](O)CN2CCc3cc(OCc4cnco4)ccc3C2)cc(NC2CCC2)n1 [Compound 307, (S)-2-(cyclobutylamino)-N-(2-hydroxy-3-(6-(oxazol-5-ylmethoxy)-3,4-dihydroisoquinolin-2(1H)-yl)propyl)-6-isobutylisonicotinamide] | C* (an IC50 ratio of less than 3 fold between the IC50 in the HAP1 MTAP-intact cell line and the HAP1 MTAP-deleted cell line) | A (a Ki ratio greater than or equal to 10 fold between the Ki in the presence of SAM and the Ki in the presence of MTA)
10 | ≥ 10 µM | 500 to 5000 nM | ≥ 5 µM | 500 to 5000 nM | ≥ 10 µM | CC(C)(C)c1cc(C(=O)NC[C@H](O)CN2CCc3cc(OCc4cnco4)ccc3C2)cc(NC2CCC2)n1 [Compound 308, (S)-2-(tert-butyl)-6-(cyclobutylamino)-N-(2-hydroxy-3-(6-(oxazol-5-ylmethoxy)-3,4-dihydroisoquinolin-2(1H)-yl)propyl)isonicotinamide] | C* (an IC50 ratio of less than 3 fold between the IC50 in the HAP1 MTAP-intact cell line and the HAP1 MTAP-deleted cell line) | A (a Ki ratio greater than or equal to 10 fold between the Ki in the presence of SAM and the Ki in the presence of MTA)
11 | 1 to 10 µM | 50 to 500 nM | 0.5 to 5 µM | 50 to 500 nM | ≥ 10 µM | CCC(=O)N1CCN(c2nc(NC3COC3)cc(C(=O)NC[C@H](O)CN3CCc4cc(OCc5cnco5)ccc4C3)n2)CC1 [Compound 309, (S)—N-(2-hydroxy-3-(6-(oxazol-5-ylmethoxy)-3,4-dihydroisoquinolin-2(1H)-yl)propyl)-6-(oxetan-3-ylamino)-2-(4-propionylpiperazin-1-yl)pyrimidine-4-carboxamide] | C* (an IC50 ratio of less than 3 fold between the IC50 in the HAP1 MTAP-intact cell line and the HAP1 MTAP-deleted cell line) | A (a Ki ratio greater than or equal to 10 fold between the Ki in the presence of SAM and the Ki in the presence of MTA)
12 | 1 to 10 µM | 500 to 5000 nM | ≥ 5 µM | 50 to 500 nM | 1 to 10 µM | COc1cc(C(=O)NC[C@H](O)CN2CCc3cc(OCc4cnco4)ccc3C2)cc(NC2CCC2)n1 [Compound 310, (S)-2-(cyclobutylamino)-N-(2-hydroxy-3-(6-(oxazol-5-ylmethoxy)-3,4-dihydroisoquinolin-2(1H)-yl)propyl)-6-methoxyisonicotinamide] | B* (an IC50 ratio greater than or equal to 3 fold but lower than 10 fold between the IC50 in the HAP1 MTAP-intact cell line and the HAP1 MTAP-deleted cell line) | A (a Ki ratio greater than or equal to 10 fold between the Ki in the presence of SAM and the Ki in the presence of MTA)
13 | ≥ 10 µM | 50 to 500 nM | ≥ 5 µM | 50 to 500 nM | ≥ 10 µM | O=C(NC[C@H](O)CN1CCc2c(ccc(OCc3cnco3)c2Cl)C1)c1ccnc(NC2CCC(F)CC2)c1 (stereo partly drawn) [Compound 311, (S)—N-(3-(5-chloro-6-(oxazol-5-ylmethoxy)-3N-dihydroisoquinolin-2(1H)-yl)-2-hydroxypropyl)-2-((4-fluorocyclohexyl)amino)isonicotinamide] | C* (an IC50 ratio of less than 3 fold between the IC50 in the HAP1 MTAP-intact cell line and the HAP1 MTAP-deleted cell line) | A (a Ki ratio greater than or equal to 10 fold between the Ki in the presence of SAM and the Ki in the presence of MTA)

— patent US11986471B2, “Compounds and methods of use” (Tango Therapeutics, Inc., priority 2018, dated 2024)
